PubChem BioAssay (NCI)
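Cultured in 96-well plates, cells were exposed to test compound for 48 hours across five concentrations. GI50 = concentration required for 50% inhibition of growth. TGI: total growth inhibition.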

Key:
Test in all cases: DTP human tumour cell line panel, 48 h
T-47D breast = test system: T-47D breast
K-562 leukemia = test system: K-562 leukemia
OVCAR-5 ovarian = test system: OVCAR-5 ovarian
CCRF-CEM leukemia = test system: CCRF-CEM leukemia
UO-31 renal = test system: UO-31 renal
LOX IMVI melanoma = test system: LOX IMVI melanoma
SNB-75 CNS = test system: SNB-75 CNS
DU-145 prostate = test system: DU-145 prostate
MALME-3M melanoma = test system: MALME-3M melanoma
NCI/ADR-RES ovarian = test system: NCI/ADR-RES ovarian
SK-MEL-28 melanoma = test system: SK-MEL-28 melanoma
A549 NSCLC = test system: A549 NSCLC
BT-549 breast = test system: BT-549 breast
SF-539 CNS = test system: SF-539 CNS
MOLT-4 leukemia = test system: MOLT-4 leukemia
A498 renal = test system: A498 renal
OVCAR-8 ovarian = test system: OVCAR-8 ovarian
SK-MEL-5 melanoma = test system: SK-MEL-5 melanoma
PC-3 prostate = test system: PC-3 prostate
SK-MEL-2 melanoma = test system: SK-MEL-2 melanoma
HCT-15 colon = test system: HCT-15 colon
SK-OV-3 ovarian = test system: SK-OV-3 ovarian
IGROV1 ovarian = test system: IGROV1 ovarian
HOP-92 NSCLC = test system: HOP-92 NSCLC
HS 578T breast = test system: HS 578T breast
M14 melanoma = test system: M14 melanoma
MDA-MB-231 breast = test system: MDA-MB-231 breast
NCI-H522 lung = test system: NCI-H522 lung

Cn1ccnc1C(=O)/C=C/c1ccc(C(=O)Nc2ccc(Cl)cc2)cc1
TGI (T-47D breast): > 33300 nM
GI50 (K-562 leukemia): 646 nM
TGI (K-562 leukemia): > 33300 nM
GI50 (OVCAR-5 ovarian): 1100 nM
TGI (OVCAR-5 ovarian): 5640 nM
GI50 (CCRF-CEM leukemia): 783 nM
TGI (CCRF-CEM leukemia): 2710 nM
GI50 (UO-31 renal): 905 nM
TGI (UO-31 renal): 4340 nM
GI50 (LOX IMVI melanoma): 686 nM
TGI (LOX IMVI melanoma): 1560 nM
GI50 (SNB-75 CNS): 615 nM
TGI (SNB-75 CNS): > 33300 nM
GI50 (DU-145 prostate): 1320 nM
TGI (DU-145 prostate): > 33300 nM
GI50 (MALME-3M melanoma): 2230 nM
TGI (MALME-3M melanoma): 12200 nM
GI50 (NCI/ADR-RES ovarian): 1060 nM
TGI (NCI/ADR-RES ovarian): > 33300 nM
GI50 (SK-MEL-28 melanoma): 3700 nM
TGI (SK-MEL-28 melanoma): 9890 nM
GI50 (A549 NSCLC): 951 nM
TGI (A549 NSCLC): > 33300 nM
GI50 (BT-549 breast): 958 nM
TGI (BT-549 breast): 7720 nM
GI50 (SF-539 CNS): 626 nM
TGI (SF-539 CNS): 1420 nM
GI50 (MOLT-4 leukemia): 810 nM
TGI (MOLT-4 leukemia): 2430 nM
GI50 (A498 renal): 661 nM
TGI (A498 renal): > 33300 nM
GI50 (OVCAR-8 ovarian): 1010 nM
TGI (OVCAR-8 ovarian): > 33300 nM
GI50 (SK-MEL-5 melanoma): 2350 nM
TGI (SK-MEL-5 melanoma): 7040 nM
GI50 (PC-3 prostate): 951 nM
TGI (PC-3 prostate): 19000 nM
GI50 (SK-MEL-2 melanoma): 7680 nM
TGI (SK-MEL-2 melanoma): > 33300 nM
GI50 (HCT-15 colon): 676 nM
TGI (HCT-15 colon): 3120 nM
GI50 (SK-OV-3 ovarian): 1870 nM
TGI (SK-OV-3 ovarian): > 33300 nM
GI50 (IGROV1 ovarian): 855 nM
TGI (IGROV1 ovarian): 2620 nM
GI50 (HOP-92 NSCLC): 1140 nM
TGI (HOP-92 NSCLC): 27000 nM
GI50 (HS 578T breast): 919 nM
TGI (HS 578T breast): > 33300 nM
GI50 (M14 melanoma): 968 nM
TGI (M14 melanoma): 4960 nM
GI50 (MDA-MB-231 breast): 1200 nM
TGI (MDA-MB-231 breast): 16700 nM
GI50 (NCI-H522 lung): 1810 nM
TGI (NCI-H522 lung): 14000 nM
